One block for each compound: values may come before it.
How the values were obtained:
RAW267.4 cells = test: Gene expression by RT-PCR in RAW267.4 cells; assay type: cell-based, mouse; settings: 48 h, 10 μM chiglitazar; for Expression of PPARα and/or PPARδ downstream gene SRA: 50 μM WY14643, 5 μM 2-Bro, compared with rosiglitazone 10 μM
Description: (§1) cDNAs for human retinoid X receptor (hRXR), PPARα, PPARγ, and PPARδ were obtained by reverse transcriptase polymerase chain reaction (RT-PCR) from human liver or adipose tissues. Amplified cDNAs were cloned into pcDNA3.1 expression vector (Invitrogen, Carlsbad, CA, USA). The integrity and fidelity of all constructs made were verified by DNA sequencing. Luciferase reporter plasmids, ACOX promoter for PPARγ and pHD(X3)-luc for PPARα, were kind gifts of Drs. TM McIntyre (University of Utah, USA) and RA Rachubinski (University of Alberta, Canada), respectively. PPRE-luc for PPARδ was constructed based on the previous report by insertion of the annealed oligonucleotides having four copies of the CYP4A6 PPRE (4 × […]) into the upstream of the luciferase coding sequence in pGL3-promoter vector (Promega, Madison, WI, USA). pCMVβGal was purchased from Clontech (Palo Alto, CA, USA). The mouse 3T3-L1 preadipocyte cell line, skeletal muscle C2C12 cell line, and macrophage RAW267.4 cell line and the human osteosarcoma U2OS cell line were obtained from the American Type Culture Collection (ATCC, Rockville, MD, USA). The human hepatoma SMMC-7721 cell line was obtained from the Cell Culture Center of Chinese Academy of Medical Sciences (Beijing, China). Cell lines were cultured in medium of DMEM (3T3-L1, C2C12, and SMMC-7721), RPMI 1640 (RAW267.4), or McCoy's 5A (U2OS), containing 10% fetal bovine serum (FBS), 50 μg/mL streptomycin, and 50 units/mL penicillin at 37°C in a humidified incubator with 5% CO2.
(§2) Total RNA was extracted from cells or tissues with an RNeasy minikit (Qiagen, Valencia, CA, USA). The first-strand cDNA was synthesized using the oligo(dT) primers, followed by using SuperScript II reverse transcriptase (Invitrogen) according to the manufacturer's instructions. The PCR amplifications were performed in 10 μL of reaction mixture volume containing 0.8 μL of cDNA, 10 mM Tris-HCl (pH 8.3), 50 mM KCl, 1.5 mM MgCl2, 0.1% Triton X-100, 0.2 mM deoxynucleotide triphosphates, 0.4 μM primers, and 0.25 U of Taq polymerase (TaKaRa Biotechnology Co., Ltd, China). Taq DNA polymerase was added to each tube after a treatment of 2 min at 94°C. This was followed by 22–30 cycles of denaturation (23 s at 94°C), annealing (20 s at 55°C), extension (30 s at 72°C), and a final extension step of 2 min. PCR products were analyzed by electrophoresis on a 1.5% agarose gel stained with ethidium bromide.
(§3) Figure 1 In vitro regulation of gene expression by chiglitazar. (a) Endogenous expression of individual PPAR subtypes in cell lines. […]. The expression change of referred genes induced by different compounds was normalized against internal control (36B4 or GAPDH) and then compared with vehicle control treatment. The data shown are averaged from 3 independent experiments.

SMMC-7721 cells = test: Gene expression by RT-PCR in SMMC-7721 cells; assay type: cell-based, human; settings: 48 h, 10 μM rosiglitazone, 10 μM chiglitazar; for Expression of LDL receptor (LDLR): 50 μM WY14643, 5 μM 2-Bro
Description: as §1, §2, §3

PPARδ [1] = molecular target: T1, PPARδ (Homo sapiens, UniProt Q03181); test: PPARδ transactivation reporter gene assay in U2OS cells; assay type: cell-based
T1 construct: expressed in transfected cells; host or cells: SMMC-7721 or U2OS
T1 sequence (Q03181 1-441): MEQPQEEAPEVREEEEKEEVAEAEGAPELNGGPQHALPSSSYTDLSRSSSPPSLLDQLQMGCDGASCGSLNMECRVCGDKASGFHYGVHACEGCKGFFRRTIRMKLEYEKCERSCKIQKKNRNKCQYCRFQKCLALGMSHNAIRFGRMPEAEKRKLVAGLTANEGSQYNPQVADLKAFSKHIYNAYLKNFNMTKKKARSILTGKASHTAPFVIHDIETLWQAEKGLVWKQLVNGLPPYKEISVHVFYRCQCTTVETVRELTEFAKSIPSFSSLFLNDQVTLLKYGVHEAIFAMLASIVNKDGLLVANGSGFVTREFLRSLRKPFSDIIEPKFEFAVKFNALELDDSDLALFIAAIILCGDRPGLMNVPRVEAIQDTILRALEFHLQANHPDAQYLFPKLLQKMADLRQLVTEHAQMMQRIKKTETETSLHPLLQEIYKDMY
T1 sequence (P19793 1-462 partner): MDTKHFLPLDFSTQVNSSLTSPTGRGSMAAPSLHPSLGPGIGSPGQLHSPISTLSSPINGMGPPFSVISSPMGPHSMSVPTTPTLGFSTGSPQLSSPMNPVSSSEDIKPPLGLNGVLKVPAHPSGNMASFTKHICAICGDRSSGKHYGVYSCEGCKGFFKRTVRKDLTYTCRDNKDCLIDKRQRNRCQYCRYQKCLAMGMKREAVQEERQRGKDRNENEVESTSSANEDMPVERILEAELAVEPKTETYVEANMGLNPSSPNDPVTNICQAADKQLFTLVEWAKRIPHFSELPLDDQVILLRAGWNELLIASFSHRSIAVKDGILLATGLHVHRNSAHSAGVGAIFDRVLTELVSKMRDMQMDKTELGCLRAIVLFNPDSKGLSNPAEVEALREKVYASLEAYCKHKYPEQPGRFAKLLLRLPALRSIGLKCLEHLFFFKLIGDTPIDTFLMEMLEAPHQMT

PPARδ [2] = molecular target: T1, PPARδ; test: PPARδ transactivation reporter gene assay in SMMC-7721 cells; assay type: cell-based
C2C12 cells = test: Gene expression by RT-PCR in C2C12 cells; assay type: cell-based, mouse; settings: 48 h, 10 μM chiglitazar, 50 μM WY14643, 5 μM 2-Bro, compared with rosiglitazone 10 μM
Description: as §1
Total RNA was extracted from cells or tissues with an RNeasy minikit (Qiagen, Valencia, CA, USA). The first-strand cDNA was synthesized using the oligo(dT) primers, followed by using SuperScript II reverse transcriptase (Invitrogen) according to the manufacturer's instructions. […] PCR products were analyzed by electrophoresis on a 1.5% agarose gel stained with ethidium bromide. […]

PPARα [3] = molecular target: T2, PPARα (Homo sapiens, UniProt Q07869); test: PPARα transactivation reporter gene assay in SMMC-7721 cells; assay type: cell-based
T2 sequence (Q07869 1-468): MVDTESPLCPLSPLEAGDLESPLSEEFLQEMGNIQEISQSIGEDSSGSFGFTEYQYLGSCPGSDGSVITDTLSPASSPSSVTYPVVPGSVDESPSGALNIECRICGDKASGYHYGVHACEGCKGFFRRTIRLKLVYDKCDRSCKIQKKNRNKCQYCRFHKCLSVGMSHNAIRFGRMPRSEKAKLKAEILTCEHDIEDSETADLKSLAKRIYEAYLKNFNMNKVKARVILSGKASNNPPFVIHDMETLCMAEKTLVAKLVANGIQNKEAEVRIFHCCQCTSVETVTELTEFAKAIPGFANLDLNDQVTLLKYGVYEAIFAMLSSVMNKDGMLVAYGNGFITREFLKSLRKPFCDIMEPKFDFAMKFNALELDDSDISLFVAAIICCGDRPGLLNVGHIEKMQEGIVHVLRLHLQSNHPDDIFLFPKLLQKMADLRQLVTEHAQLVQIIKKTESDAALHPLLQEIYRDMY
T2 sequence (P19793 1-462 partner): T1 sequence (P19793 1-462 partner)

PPARγ [4] = molecular target: T3, PPARγ (Homo sapiens, UniProt P37231); test: PPARγ transactivation reporter gene assay in U2OS cells; assay type: cell-based; settings: 24 h treatment, luciferase reporter, hRXR cotransfected, ia: inactive at 10 μM
T3 construct: expressed in transfected cells; host or cells: SMMC-7721 or U2OS
T3 sequence (P37231 1-505): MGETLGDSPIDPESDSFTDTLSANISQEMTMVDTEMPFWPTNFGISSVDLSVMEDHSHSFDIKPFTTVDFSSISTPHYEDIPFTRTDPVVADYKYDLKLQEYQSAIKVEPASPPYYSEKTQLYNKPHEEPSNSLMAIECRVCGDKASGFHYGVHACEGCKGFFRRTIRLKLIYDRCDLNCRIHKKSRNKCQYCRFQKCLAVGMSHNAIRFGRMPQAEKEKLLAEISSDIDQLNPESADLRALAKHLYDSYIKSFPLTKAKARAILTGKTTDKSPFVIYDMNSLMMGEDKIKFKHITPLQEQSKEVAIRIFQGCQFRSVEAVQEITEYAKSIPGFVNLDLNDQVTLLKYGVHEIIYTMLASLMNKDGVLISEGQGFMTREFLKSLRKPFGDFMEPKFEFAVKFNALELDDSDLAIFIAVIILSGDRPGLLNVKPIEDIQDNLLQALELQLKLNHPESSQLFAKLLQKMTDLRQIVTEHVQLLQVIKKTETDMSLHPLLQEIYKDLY
T3 sequence (P19793 1-462 partner): T1 sequence (P19793 1-462 partner)

PPARα [5] = molecular target: T2, PPARα; test: PPARα transactivation reporter gene assay in U2OS cells; assay type: cell-based
PPARγ [6] = molecular target: T3, PPARγ; test: PPARγ transactivation reporter gene assay in SMMC-7721 cells; assay type: cell-based
rats = system: rats; parameters: method as in earlier work; settings: same length of treatment (6 months) ref 44, 45; cited from earlier work
3T3-L1 cells = test: Gene expression by RT-PCR in 3T3-L1 cells; assay type: cell-based, mouse; settings: 48 h, 10 μM rosiglitazone, 10 μM chiglitazar, vs vehicle
Description: as §1, with “The human hepatoma SMMC-7721 cell line was obtained from the Cell Culture Center of Chinese Academy of Medical Sciences (Beijing, China). Cell lines were cultured in medium of DMEM (3T3-L1, C2C12, and SMMC-7721), RPMI 1640 (RAW267.4), or McCoy's 5A (U2OS), containing 10% fetal bovine serum (FBS), 50 μg/mL streptomycin, and 50 units/mL penicillin at 37°C in a humidified incubator with 5% CO2.” left out
Total RNA was extracted from cells or tissues with an RNeasy minikit (Qiagen, Valencia, CA, USA). […] PCR products were analyzed by electrophoresis on a 1.5% agarose gel stained with ethidium bromide. […]

KKAy mice = test: Gene expression by RT-PCR in tissues of treated KKAy mice; assay type: in vivo, mouse; settings: 12 days oral
Experimental: as §2
Male db/db mice (BKS.Cg-m +/+ LEPR^db) in 6-7 weeks were purchased from The Jackson Laboratory (Bar Harbor, ME, USA). Male KKAy and C57BL/6J mice in 8–10 weeks were obtained from the Institute of Animal Science, Chinese Academy of Medical Sciences and Peking Union Medical College (Beijing, China). Animals were randomly sorted into different treatment groups (8–10 per group). […]. Plasma glucose levels were examined at various time points by Accu-Chek Advantage II Glucose Strips (Roche Diagnostics, Basel, Switzerland) and measured by Accu-Chek Advantage (Roche Diagnostics). Animals were sacrificed 24 h after the last dosing and abdominal fat pad, liver, and skeletal muscle from KKAy mice and abdominal fat pad from db/db mice were taken for gene expression analysis.
Figure 3 In vivo regulation of gene expression by chiglitazar. […]. Equal amount of total RNA from each mouse in the same group was mixed and subjected to RT-PCR analysis for the indicated genes. […]. Total RNA was isolated from individual animal tissues and subjected to the RT-PCR analysis independently for the indicated genes.

[7] = 24 h treatment, luciferase reporter, hRXR cotransfected, ia: inactive at 10 μM
[8] = chiglitazar 20 mg kg^−1, rosiglitazone 5 mg kg^−1
[9] = max response compared with WY at 50 μM

SMILES: CCCCCCCCCCCCCCC(Br)C(=O)O (centres unmarked) [2-Bro, 2-bromohexadecanoic acid, reference compound]
Expression of PPARα and/or PPARδ downstream gene SRA (RAW267.4 cells): more significantly upregulated
Expression of LDL receptor (LDLR) (SMMC-7721 cells): significantly upregulated
EC50 (PPARδ [1]): 9.2 ± 0.8 µM
PPARδ % Max (PPARδ [1]; U2OS cells, max response compared with 2-Bro at 10 μM): 100%
EC50 (PPARδ [2]): 5.1 ± 0.9 µM
PPARδ % Max (PPARδ [2]; SMMC-7721 cells, max response compared with 2-Bro at 10 μM): 100%
Expression of PPARα and/or PPARδ downstream genes CPT-1a and CPT-1b (C2C12 cells): more significantly upregulated
PPARα EC50 (PPARα [3]; [7]): ia^2
PPARγ EC50 (PPARγ [4]): ia
PPARα EC50 (PPARα [5]; [7]): ia
EC50 (PPARγ [6]): 5.5 ± 1.7 µM
PPARγ % Max (PPARγ [6]; SMMC-7721 cells, max response compared with Ros at 1 μM): 14%

SMILES: CCc1ccc(CCOc2ccc(CC3SC(=O)NC3=O)cc2)nc1 (centres unmarked) [Pio, pioglitazone]
Dose observed to induce heart weight increase (rats): 4 mg/kg

SMILES: CN(CCOc1ccc(CC2SC(=O)NC2=O)cc1)c1ccccn1 (centres unmarked) [Ros, rosiglitazone, reference compound]
Expression of PPARγ downstream gene CD36 (RAW267.4 cells; 10 μM rosiglitazone, vs vehicle): upregulated
Expression of PPARγ downstream genes SREBP1 and adiponectin (3T3-L1 cells): upregulated
Expression of PPARγ downstream genes AOX, LIPC and HSL (SMMC-7721 cells; vs vehicle): upregulated
Expression of LDL receptor (LDLR) (SMMC-7721 cells): downregulated
Expression of ACADL, HSL, GLUT4 and PPARγ in liver and skeletal muscle (KKAy mice; [8]): not affected
Expression of genes involved in PPARγ-mediated insulin sensitization in adipose tissue (KKAy mice; [8]): almost identically up-regulated
Expression of Adiponectin and CD36 in liver and skeletal muscle (KKAy mice; rosiglitazone 5 mg kg^−1 vs chiglitazar 20 mg kg^−1): more upregulated
Dose observed to induce heart weight increase (rats): 5 mg/kg

PPARα % Max (PPARα [3]; [9]): 100%
PPARα % Max (PPARα [5]; [9]): 100%
SMILES: Cc1cccc(Nc2cc(Cl)nc(SCC(=O)O)n2)c1C [WY, WY14643]
Expression of PPARα and/or PPARδ downstream gene SRA (RAW267.4 cells): more significantly upregulated
Expression of LDL receptor (LDLR) (SMMC-7721 cells): downregulated
Expression of PPARα and/or PPARδ downstream genes CPT-1a and CPT-1b (C2C12 cells): more significantly upregulated

Source: publication PMC3486420, “In Vitro and In Vivo Characterizations of Chiglitazar, a Newly Identified PPAR Pan-Agonist” (PPAR Research, 2012)
